Series [1] has as its system chorioallantoic membranes (CAM) of 7-days old chicken embryos incubated with murine mammary carcinoma Cl-66 cells. To be noted: 3-day incubation. On the procedure:
The chorioallantoic membranes (CAM) of 7-days old chicken embryos were incubated with each 10^5 cells of the murine mammary carcinoma Cl-66 24 hours prior to a 3-day incubation with disks containing either 5 μg of Doxorubicin, 5 μg of Dox equivalent in nanoparticles (14/1/1 IMMA/NOBA/NaA, PEG3400), 5 μg of Dox equivalent in nanoparticles functionalized with cyclic-RGD (14/1/1 IMMA/NOBA/NaA, PEG3400-cRGD), or PBS as a control. Linker attachment to nanoparticles was made as described in Example 31.
After 3 days, CAMs were excised and photographed for analysis.

In series [2] the test system is C-32 cells (human melanoma). Kind of series: In vitro cytotoxicity, MTT cell proliferation assay. In kind it is cell-based. To be noted: 48 hours, free drug.
Protocol: The toxicity of Dox linked to the nanoarticles via the amide bond was tested in an in vitro toxicity assay against C-32 cells (human melanoma).
In a 96-well tissue culture microtiter plate, 10,000 cells of C-32 per well in culture medium were allowed to attach for 2 hours prior to incubation with varying concentrations of Dox-amide nanoarticle, and free Dox. Cells were incubated at 37° C., 5% CO2 in a humidified chamber for 48 hours. Cell proliferation was assayed using the calorimetric MTT kit (CT01, Chemicon, Int.).
The toxicity of Dox linked to the nanoarticles via the hydrazone bond was tested in an in vitro toxicity assay against C-32 cells (human melanoma).
In a 96-well tissue culture microtiter plate, 10,000 cells of C-32 per well in culture medium were allowed to attach for 2 hours prior to incubation with varying concentrations of Dox-hydrazone nanoarticle, and free Dox. Cells were incubated at 37° C., 5% CO2 in a humidified chamber for 48 hours. Cell proliferation was assayed using the calorimetric MTT kit (CT01, Chemicon, Int.).
Series [3] deals with CL66 murine mammary carcinoma cells.
Protocol: The efficacy and toxicity of nano-article-conjugated doxorubicin (Dox-NP) was compared to doxorubicin (Dox) and a saline control. Dox-NP of composition 14/1/1 IMMA/CiBA/NaA, 5.6 w % Dox were made following procedures described in Example 16.
CL66 murine mammary carcinoma cells were grown to 80-90% confluence in supplemented media, trypsinized for 2 min at 37° C. with 1× trypsin, rinsed with Hank's Balanced Salt Solution (w/out calcium and magnesium) and resuspended at 1×10^6 cell/ml, with 0.1 ml injected into the mammary fat pad of female Balb/C mice.
Lyophilized Dox-NP was reconstituted in sterile PBS at the appropriate concentration and stored at 2-8° C. for at least 1 hour, or overnight. Excipient Dox was diluted in PBS at the appropriate concentrations. 200 μL was injected intravenously through the tail vein of the mice on days 13, 15, and 18 following tumor challenge. Dox was injected at 225 μg/animal, while Dox-NP was injected at a nano-article level sufficient to deliver Dox at 250, 420 and 560 μg/animal.
Tumor volumes were measured superficially in two dimensions. Weight loss (or gain) and survival were recorded.

The structures appear in SMILES notation.

Take `COc1cccc2c1C(=O)c1c(O)c3c(c(O)c1C2=O)C[C@@](O)(C(=O)CO)C[C@@H]3O[C@H]1C[C@H](N)[C@H](O)[C@H](C)O1` [Doxorubicin]: in series [1] (disks with 5 μg Dox or Dox equivalent), the “reduction of the number of blood vessels / blood vessel distribution around the disk” value was “most effective in reducing the number of blood vessels”. The “embryos died during treatment” value in series [1] (disks with 5 μg) is 3 out of 10. Further, the 50% growth inhibition in series [2] turned out to be 0.8 µg/mL. In series [3] (225 μg/animal Dox compared with the higher doses of Dox-NP), the survival time entry was “slightly longer survival time”. The toxicity entry in series [3] (225 μg/animal i.v. on days 13, 15, 18) was “toxic”.
